Assay results published in PubChem BioAssay AID1259407 (Chemical Carcinogenesis Research Information System (CCRIS), 2018).
Active and inactive are the calls of the source. The rule behind the calls is not given here.

Test system: CCRIS mutagenicity, Ames/micronucleus/aberration tests
Assay: CCRIS mutagenicity studies
[1] = Test System: AMES SALMONELLA TYPHIMURIUM, Strain/Indicator: TA98, Metabolic Activation: NONE, Method: STANDARD PLATE
[2] = Test System: AMES SALMONELLA TYPHIMURIUM, Strain/Indicator: TA98, Metabolic Activation: RAT, LIVER, S-9, AROCLOR 1254, Method: STANDARD PLATE
[3] = Test System: AMES SALMONELLA TYPHIMURIUM, Strain/Indicator: TA100, Metabolic Activation: NONE, Method: STANDARD PLATE
[4] = Test System: AMES SALMONELLA TYPHIMURIUM, Strain/Indicator: TA100, Metabolic Activation: RAT, LIVER, S-9, AROCLOR 1254, Method: STANDARD PLATE
[5] = Test System: AMES SALMONELLA TYPHIMURIUM, Strain/Indicator: TA98, Metabolic Activation: NONE, Method: PREINCUBATION
[6] = Test System: AMES SALMONELLA TYPHIMURIUM, Strain/Indicator: TA100, Metabolic Activation: NONE, Method: PREINCUBATION
[7] = Test System: AMES SALMONELLA TYPHIMURIUM, Strain/Indicator: TA1535, Metabolic Activation: NONE, Method: STANDARD PLATE
[8] = Test System: AMES SALMONELLA TYPHIMURIUM, Strain/Indicator: TA1535, Metabolic Activation: RAT, LIVER, S-9, AROCLOR 1254, Method: STANDARD PLATE
[9] = Test System: AMES SALMONELLA TYPHIMURIUM, Strain/Indicator: TA1537, Metabolic Activation: NONE, Method: STANDARD PLATE
[10] = Test System: AMES SALMONELLA TYPHIMURIUM, Strain/Indicator: TA1537, Metabolic Activation: RAT, LIVER, S-9, AROCLOR 1254, Method: STANDARD PLATE

## O=CN(O)c1ccc(Br)cc1
[1]
  mutagenic call: inactive; negative
[2]
  mutagenic call: active; positive
[3]
  mutagenic call: inactive; negative
[4]
  mutagenic call: active; positive

## CNP1(NC)=NP(NC)(NC)=NP(NC)(NC)=N1
[1]
  mutagenic call: inactive; negative
[2]
  mutagenic call: inactive; negative
[3]
  mutagenic call: inactive; negative
[4]
  mutagenic call: inactive; negative

## CC(=O)N(C(C)=O)c1cc(N=Nc2ccc(C)cc2)ccc1C
Test System: AMES SALMONELLA TYPHIMURIUM, Strain/Indicator: TA98, Metabolic Activation: NONE, Method: SUSPENSION/PLATE
  mutagenic call: inactive; negative
Test System: AMES SALMONELLA TYPHIMURIUM, Strain/Indicator: TA98, Metabolic Activation: RAT, LIVER, S-9, PHENOBARBITAL AND 5,6-BENZOFLAVONE, Method: SUSPENSION/PLATE
  mutagenic call: inactive; negative
Test System: AMES SALMONELLA TYPHIMURIUM, Strain/Indicator: TA100, Metabolic Activation: NONE, Method: SUSPENSION/PLATE
  mutagenic call: inactive; negative
Test System: AMES SALMONELLA TYPHIMURIUM, Strain/Indicator: TA100, Metabolic Activation: RAT, LIVER, S-9, PHENOBARBITAL AND 5,6-BENZOFLAVONE, Method: SUSPENSION/PLATE
  mutagenic call: inactive; negative

## CC(=O)c1cc(NC(N)=O)ccc1OCC(O)CNC(C)(C)C (stereo unspecified)
[5]
  mutagenic call: inactive; negative
Test System: AMES SALMONELLA TYPHIMURIUM, Strain/Indicator: TA98, Metabolic Activation: RAT, LIVER, S-9, AROCLOR 1254 (10 OR 50 µL/PLATE), Method: PREINCUBATION
  mutagenic call: inactive; negative
[6]
  mutagenic call: inactive; negative
Test System: AMES SALMONELLA TYPHIMURIUM, Strain/Indicator: TA100, Metabolic Activation: RAT, LIVER, S-9, AROCLOR 1254 (10 OR 50 µL/PLATE ), Method: PREINCUBATION
  mutagenic call: active; positive
Test System: AMES SALMONELLA TYPHIMURIUM, Strain/Indicator: TA1535, Metabolic Activation: NONE, Method: PREINCUBATION
  mutagenic call: inactive; negative
Test System: AMES SALMONELLA TYPHIMURIUM, Strain/Indicator: TA1535, Metabolic Activation: RAT, LIVER, S-9, AROCLOR 1254 (10 OR 50 µL/PLATE), Method: PREINCUBATION
  mutagenic call: active; positive
Test System: AMES SALMONELLA TYPHIMURIUM, Strain/Indicator: TA1537, Metabolic Activation: NONE, Method: PREINCUBATION
  mutagenic call: inactive; negative
Test System: AMES SALMONELLA TYPHIMURIUM, Strain/Indicator: TA1537, Metabolic Activation: RAT, LIVER, S-9, AROCLOR 1254 (10 OR 50 µL/PLATE), Method: PREINCUBATION
  mutagenic call: inactive; negative
Test System: E. COLI, Strain/Indicator: WP2 UVRA, Metabolic Activation: NONE, Method: PREINCUBATION
  mutagenic call: inactive; negative
Test System: E. COLI, Strain/Indicator: WP2 UVRA, Metabolic Activation: RAT, LIVER, S-9, AROCLOR 1254 (10 OR 50 µL/PLATE), Method: PREINCUBATION
  mutagenic call: inactive; negative

## c1ccc2c3c(ccc2c1)-c1cccc2cccc-3c12
Test System: AMES SALMONELLA TYPHIMURIUM, Strain/Indicator: TA97A, Metabolic Activation: NONE, Method: PREINCUBATION
  mutagenic call: inactive; negative
[5]
  mutagenic call: inactive; negative
[6]
  mutagenic call: inactive; negative
[4]
  mutagenic call: active; positive

## FC(F)(Cl)Br
Test System: AMES SALMONELLA TYPHIMURIUM, Strain/Indicator: TA98, Metabolic Activation: NONE, Method: DESICCATOR
  mutagenic call: inactive; negative
Test System: AMES SALMONELLA TYPHIMURIUM, Strain/Indicator: TA100, Metabolic Activation: NONE, Method: DESICCATOR
  mutagenic call: inactive; negative
Test System: AMES SALMONELLA TYPHIMURIUM, Strain/Indicator: TA100, Metabolic Activation: RAT, LIVER, S-9, AROCLOR 1254, Method: DESICCATOR
  mutagenic call: inactive; negative
Test System: AMES SALMONELLA TYPHIMURIUM, Strain/Indicator: TA1535, Metabolic Activation: NONE, Method: DESICCATOR
  mutagenic call: active; positive
Test System: AMES SALMONELLA TYPHIMURIUM, Strain/Indicator: TA1535, Metabolic Activation: RAT, LIVER, S-9, AROCLOR 1254, Method: DESICCATOR
  mutagenic call: active; positive
Test System: AMES SALMONELLA TYPHIMURIUM, Strain/Indicator: TA1538, Metabolic Activation: RAT, LIVER, S-9, AROCLOR 1254, Method: DESICCATOR
  mutagenic call: inactive; negative
Test System: MOUSE LYMPHOMA, Strain/Indicator: L5178Y (TK+/TK-), Metabolic Activation: NONE, Method: DESICCATOR
  mutagenic call: inactive; negative
Test System: MOUSE LYMPHOMA, Strain/Indicator: L5178Y (TK+/TK-), Metabolic Activation: S-9, Method: DESICCATOR
  mutagenic call: inactive; negative

## O=C(O)c1ccccn1
Test System: AMES SALMONELLA TYPHIMURIUM, Strain/Indicator: TA98, Metabolic Activation: HAMSTER, LIVER, S-9, AROCLOR 1254, Method: STANDARD PLATE
  mutagenic call: inactive; negative
[1]
  mutagenic call: inactive; negative
[2]
  mutagenic call: inactive; negative
Test System: AMES SALMONELLA TYPHIMURIUM, Strain/Indicator: TA100, Metabolic Activation: HAMSTER, LIVER, S-9, AROCLOR 1254, Method: STANDARD PLATE
  mutagenic call: inactive; negative
[3]
  mutagenic call: inactive; negative
[4]
  mutagenic call: inactive; negative
Test System: AMES SALMONELLA TYPHIMURIUM, Strain/Indicator: TA1535, Metabolic Activation: HAMSTER, LIVER, S-9, AROCLOR 1254, Method: STANDARD PLATE
  mutagenic call: inactive; negative
[7]
  mutagenic call: inactive; negative
[8]
  mutagenic call: inactive; negative
Test System: AMES SALMONELLA TYPHIMURIUM, Strain/Indicator: TA1537, Metabolic Activation: HAMSTER, LIVER, S-9, AROCLOR 1254, Method: STANDARD PLATE
  mutagenic call: inactive; negative
[9]
  mutagenic call: inactive; negative
[10]
  mutagenic call: inactive; negative
Test System: CHINESE HAMSTER OVARY CELLS, Strain/Indicator: CHO CELLS (HPRT)/6-THIOGUANINE, Metabolic Activation: NONE, Method: STANDARD PLATE
  mutagenic call: inactive; negative
Test System: MOUSE LYMPHOMA CELLS, Strain/Indicator: L5178Y TK+/-, Metabolic Activation: NONE, Method: TFT RESISTANCE
  mutagenic call: inactive; negative
Test System: MOUSE LYMPHOMA CELLS, Strain/Indicator: L5178Y TK+/-, Metabolic Activation: RAT, LIVER, S-9, AROCLOR 1254, Method: TFT RESISTANCE
  mutagenic call: inactive; negative
Test System: MOUSE LYMPHOMA, Strain/Indicator: L5178Y (TK+/TK-), Metabolic Activation: NONE, Method: SUSPENSION/PLATE
  mutagenic call: active; positive. reevaluation of results: equivocal
Test System: MOUSE LYMPHOMA, Strain/Indicator: L5178Y (TK+/TK-), Metabolic Activation: RAT, LIVER, S-9, AROCLOR 1254, Method: SUSPENSION/PLATE
  mutagenic call: active; positive. reevaluation of results: equivocal

## O=[N+]([O-])c1ccc(/C=C/c2cccc(CO)n2)o1
Test System: UDS HUMAN FIBROBLASTS, Strain/Indicator: THY INCORP (NON-S-PHASE), Metabolic Activation: NONE, Method: AUTORADIOGRAPHY
  mutagenic call: active; positive

## Cc1c(N)cc([N+](=O)[O-])c(N)c1C
[1]
  mutagenic call: active; positive
[2]
  mutagenic call: active; positive
[3]
  mutagenic call: inactive; negative
[4]
  mutagenic call: inactive; negative
[7]
  mutagenic call: inactive; negative
[8]
  mutagenic call: inactive; negative
[9]
  mutagenic call: inactive; negative
[10]
  mutagenic call: inactive; negative
Test System: AMES SALMONELLA TYPHIMURIUM, Strain/Indicator: TA1538, Metabolic Activation: NONE, Method: STANDARD PLATE
  mutagenic call: active; positive
Test System: AMES SALMONELLA TYPHIMURIUM, Strain/Indicator: TA1538, Metabolic Activation: RAT, LIVER, S-9, AROCLOR 1254, Method: STANDARD PLATE
  mutagenic call: active; positive

## Cc1c(N)cnc2c1nc1c(C)cccn12
[1]
  mutagenic call: inactive; negative
Test System: AMES SALMONELLA TYPHIMURIUM, Strain/Indicator: TA98, Metabolic Activation: RAT, LIVER, CYTOSOL, AROCLOR 1254, Method: STANDARD PLATE
  mutagenic call: active; positive
Test System: AMES SALMONELLA TYPHIMURIUM, Strain/Indicator: TA98, Metabolic Activation: RAT, LIVER, MICROSOMES, AROCLOR 1254, Method: STANDARD PLATE
  mutagenic call: active; positive
[2]
  mutagenic call: active; positive
